Data from paper PMC6358909, “Synthesis and Biochemical Evaluation of Lid-Open D-Amino Acid Oxidase Inhibitors” (Molecules, 2019).

Tests used:
Human DAAO = target: T1, Human DAAO (Homo sapiens, UniProt P14920); assay: KYNA enzyme inhibition assay (D-kynurenine substrate, fluorescence); type: biochemical; details: 5 µM FAD, pH 8, 37 °C 1 h, standard deviations in parenthesis
T1 construct: purchased TargetEx Ltd. (Dunakeszi, Hungary)
Description: The prepared compounds were tested as DAAO inhibitors with the KYNA enzyme inhibitory assay. Although D-serine is a natural substrate of DAAO, its metabolite is not suitable for fluorometric evaluation. However in the applied assay, D-kynurenine can be metabolized by DAAO [19] and the metabolite (KYNA) has a favorable fluorescence property. Thus it can be used for fluorescence measurements.
D-2-Amino-4-(2-aminophenyl)-4-oxobutanoic acid (D-KYN) was used to measure D-amino acid oxidase activity based on the protocol described in ref. [18, 20]. Human DAAO (purchased from TargetEx Ltd. (Dunakeszi, Hungary)) was used for the measurements. The buffer contained 20 mM TRIS-HCl and 100 mM NaCl (pH = 8). Flavin adenine dinucleotide (FAD—obtained from Sigma (St. Louis, MO, USA)) in 5 µM concentration was also included in the assay. Compounds were dissolved originally in DMSO and the measured samples were diluted with the buffer solution (the final DMSO concentration was always below 5%). The mixed solution was incubated at 37 °C for 1 h. After the enzymatic reaction, ZnCl2 dissolved in H2O was added and vortex-mixed. Single point measurements were performed at 20 µm inhibitor concentration. For the IC50 measurements, the inhibitors were used at 5 nM, 50 nM, 500 nM, 2.5 µM, 5 µM, 10 µM, 50 µM. Measurements were carried out on a Citation3 cell imaging multi-mode microplate reader (BioTek Instruments Inc., Winooski, VT, USA) with […]. The applied wavelengths were 340 nm and 396 nm.
Result from the coupled HRP/Amplex Red assay for compound 13
Compound 13 was evaluated in both the KYNA and the coupled HRP/Amplex red assays. Assay […]
HRP/Amplex assay KYNA assay […]
hDAAO original concentration 1 µg / 1500 µL buffer 1 µg / 400 µL buffer hDAAO assay concentration 0.25 µg / 1500 µL buffer 0.25 µg / 400 µL buffer FAD conc. in assay 5 µM 5 µM
Ligand conc. in assay 20 µM 20 µM
Incubation period No Yes (1 hour, 37 °C)
Type of the measurement Kinetic (45 min) single point detection
Detection fluorescent fluorescent
Assay interference Yes No
Ligand autofluorescence No No
Dose response curve obtained for compound 13 using the HRP/Amplex red assay
(1 picture or pasted object on this page, not shown here)

hDAO = hDAO (Homo sapiens, UniProt P14920); assay: Differential scanning fluorimetry (DSF) measurement; type: binding; details: for Tm: hDAO without inhibitor 59.4 °C; for ~ΔTm: shift versus hDAO without inhibitor
Description: We started with compounds 8 and 9 (Figure 3). […] The activity of this 3-Cl substituted derivative (11) was lower than 100 nM therefore we synthesized the 3-Me derivative (12). […] DAAO binding and activity of representative compounds have been confirmed in orthogonal differential scanning fluorometry (DSF) and the coupled Horseradish peroxidase (HRP)/Amplex Red assays, respectively (see Supplementary materials). The designed compounds were docked into the protein structure obtained from the complex of 8 by the removal of the ligand. […]
Scheme S4. Synthesis of the headgroup […]
Results from differential scanning fluorimetry (DSF) measurements
Compound Structure DSF measurement […]

DAAO = system: DAAO; set-up: method as in PMID 25001371; details: cited from earlier work

T1 sequence (P14920 whole entry): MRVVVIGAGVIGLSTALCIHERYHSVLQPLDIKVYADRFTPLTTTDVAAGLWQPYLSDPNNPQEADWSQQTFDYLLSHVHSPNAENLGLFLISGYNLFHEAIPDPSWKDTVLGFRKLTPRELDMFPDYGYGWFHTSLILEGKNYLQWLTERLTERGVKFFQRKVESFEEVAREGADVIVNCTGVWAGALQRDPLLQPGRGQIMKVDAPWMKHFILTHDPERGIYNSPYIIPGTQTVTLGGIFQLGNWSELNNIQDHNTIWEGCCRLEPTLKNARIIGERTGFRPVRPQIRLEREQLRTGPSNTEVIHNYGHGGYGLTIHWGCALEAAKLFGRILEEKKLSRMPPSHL
Chain of hDAO (P14920 whole entry): as above

| Compound | IC50 (Human DAAO) [nM] | Tm (hDAO) [°C] | ~ΔTm (hDAO) [°C] | competitive D-serine inhibitory properties (DAAO) |
| --- | --- | --- | --- | --- |
| O=c1cc(-c2ccc(Cl)cc2)c2cc(CCc3cc(O)c(=O)[nH]n3)c(O)cc2o1 [Compound 9] | 119 | – | – | – |
| COc1cccc(-c2cc(=O)oc3cc(O)c(CCc4cc(O)c(=O)[nH]n4)cc23)c1 [Compound 13] | 73 | 72.0 | ~12.6 | – |
| O=C(O)CCc1cc2c(-c3ccccc3)cc(=O)oc2cc1O [Compound 7] | – | – | – | low nanomolar range |
| O=c1cc(-c2cccc(Cl)c2)c2cc(CCc3cc(O)c(=O)[nH]n3)c(O)cc2o1 [Compound 11] | 69 | – | – | – |
| Cc1cccc(-c2cc(=O)oc3cc(O)c(CCc4cc(O)c(=O)[nH]n4)cc23)c1 [Compound 12] | 52 | – | – | – |
| O=c1cc(-c2ccccc2)c2cc(CCc3cc(O)c(=O)[nH]n3)c(O)cc2o1 [Compound 8, reference compound] | 112 | 74.7 | ~15.3 | – |
| Cc1ccc(-c2cc(=O)oc3cc(O)c(CCc4cc(O)c(=O)[nH]n4)cc23)cc1 [Compound 10] | 474 | – | – | – |
